In general, IC50 refers to the point on the concentration scale where inhibition reaches its midpoint.

T1 sequence (P47900 whole entry): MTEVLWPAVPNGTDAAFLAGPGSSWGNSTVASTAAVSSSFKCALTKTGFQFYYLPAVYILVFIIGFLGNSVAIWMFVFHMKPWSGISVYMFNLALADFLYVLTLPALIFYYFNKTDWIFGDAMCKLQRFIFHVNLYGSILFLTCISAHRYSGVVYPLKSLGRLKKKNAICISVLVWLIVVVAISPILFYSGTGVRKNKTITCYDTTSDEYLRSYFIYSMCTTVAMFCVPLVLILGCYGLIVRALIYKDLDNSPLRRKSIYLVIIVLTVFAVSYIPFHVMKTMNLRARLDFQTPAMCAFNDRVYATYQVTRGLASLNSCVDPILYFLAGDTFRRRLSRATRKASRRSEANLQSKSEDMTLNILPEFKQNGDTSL

This assay concerns the target T1, P2Y1 receptor (Homo sapiens, UniProt P47900).
T1 construct: expressed in transfected cells
In words: P2Y1 IP1 accumulation HTRF assay, antagonism of agonist MRS2365 in stably transfected cells. The assay is classed as cell-based. The conditions noted are these: racemic; 5nM MRS2365; values rounded to nearest whole number; N >= 4. Here is the method:
IC50 values were determined using a cell based assay in stably transfected cells overexpressing the P2Y1 receptor. The assay system is a […] (HTRF) assay measuring accumulation of the intracellular messenger inositol monophosphate (IP1), generated intracellularly following activation of P2Y1. Activity of test compounds was generated by measuring antagonism of the increase in IP1 generated by addition of a selective P2Y1 agonist, MRS2365.
P2Y1 overexpressing cells were maintained in T175 flasks. The day before the assay, these cells were split and 20µl cell suspension transferred to each well of white 384-well assay plates at a cell density of 0.5x10^6 cells/mL. Plates were pulse centrifuged, then incubated overnight at 37°C / 5% CO2 prior to assay.
On day of assay, medium was removed from cells and replaced with stimulation buffer. Compounds were prepared in 100% DMSO for addition to cells using the Tecan D300e digital dispenser; compounds were prepared in cassette heads and added directly to wells in the required concentration range, to give a 10-point concentration response curve from 10µM with semi-log dilutions and a final DMSO concentration of 0.1%. Positive control antagonist curves with standard compounds were included on each plate. Plates were incubated with antagonists for 1 hour prior to addition of 5nM of the agonist MRS2365, dispensed using a Bravo liquid handler. Following agonist addition, plates were incubated for 60 minutes prior to assay. Both incubations were carried out at 37°C / 5% CO2.
For the assay, IP1 accumulation was quantified using the IPOne kit according to manufacturer's instructions. In short, a standard curve was prepared for IP 1 quantification, and cells lysed using kit lysis buffer. Assay reagents were added to the lysates, and incubated for 1 hour at room temperature without spinning or shaking. Plates were analysed on a BMG Pherastar plate reader, and IP1 signal generated in cells interpolated from the standard curve.
For all reported results, N is greater than or equal to 4. An individual N refers to one assay run with a single weighing of compound. A minimum of two assay runs were performed for each of two independent weighings of compound. Results (racemic)
A general note: In TR-FRET formats the signal depends on donor and acceptor labels being close together.
The molecule `O=C(Nc1ccc(S(F)(F)(F)(F)F)cc1)Nc1cccnc1Oc1ccccc1C1(C(F)(F)F)CCO1` (racemic) [S28, 1-(4-(pentafluoro-λ^6-sulfaneyl)phenyl)-3-(2-(2-(2-(trifluoromethyl)oxetan-2-yl)phenoxy)pyridin-3-yl)urea] gave an IC50 of 157 nM.

Molecule `O=C(Nc1ccc(Cl)cc1F)Nc1cccnc1Oc1ccccc1C1(C(F)(F)F)CCO1` (racemic) [S29, 1-(4-chloro-2-fluorophenyl)-3-(2-(2-(2-(trifluoromethyl)oxetan-2-yl)phenoxy)pyridin-3-yl)urea] yielded an IC50 of 165 nM.

For the molecule `O=C(Nc1ccc(Cl)cc1F)Nc1cccnc1Oc1ccc(F)cc1C1(C(F)(F)F)CCO1` (racemic) [S30, 1-(4-chloro-2-fluorophenyl)-3-(2-(4-fluoro-2-(2-(trifluoromethyl)oxetan-2-yl)phenoxy)pyridin-3-yl)urea], the concentration for half-maximal inhibition (IC50) was determined as 166 nM.

The molecule `O=C(Nc1ccc(OC(F)(F)F)cc1)Nc1cccnc1Oc1cc(F)ccc1C1(C(F)(F)F)CCO1` (racemic) [S31] gave an IC50 of 168 nM.

In the case of `Cc1ccc(NC(=O)Nc2ccc(Cl)cc2)c(Oc2ccc(F)cc2C2(C(F)(F)F)CCO2)n1` (racemic) [S32, 1-(4-chlorophenyl)-3-(2-(4-fluoro-2-(2-(trifluoromethyl)oxetan-2-yl)phenoxy)-6-methylpyridin-3-yl)urea], the IC50 came to 169 nM.

In the case of `O=C(Nc1ccc(OC(F)(F)F)cc1)Nc1cccnc1Oc1ccc(F)cc1C1(C(F)(F)F)CCO1` (racemic) [S33], the IC50 was 179 nM.

`Cc1ccc(NC(=O)Nc2nc3ccc(C)nc3s2)c(Oc2ccc(F)cc2C2(C(F)(F)F)CCO2)n1` (racemic) [S34, 1-(2-(4-fluoro-2-(2-(trifluoromethyl)oxetan-2-yl)phenoxy)-6-methylpyridin-3-yl)-3-(5-methylthiazolo[5,4-b]pyridin-2-yl)urea]: the IC50 is 196 nM.

With `CN1CCC1(c1ccccc1Oc1ncccc1NC(=O)Nc1ccc(OC(F)(F)F)cc1)C(F)F` (racemic) [S35], the IC50 is 197 nM.

Regarding `O=C(Nc1ccc(OC2CC(F)(F)C2)cc1)Nc1cccnc1Oc1ccccc1C1(C(F)(F)F)CCO1` (racemic) [S36, 1-(4-(3,3-difluorocyclobutoxy)phenyl)-3-(2-(2-(2-(trifluoromethyl)oxetan-2-yl)phenoxy)pyridin-3-yl)urea], the IC50 is 207 nM.

`O=C(Nc1ccc(OC(F)(F)F)cc1)Nc1cccnc1Oc1c(F)cccc1C1(C(F)(F)F)CCO1` (racemic) [S37] yielded an IC50 of 220 nM.

In turn, `O=C(Nc1ccc(C(F)(F)F)cn1)Nc1cccnc1Oc1ccccc1C1(C(F)(F)F)CCO1` (racemic) [S38, 1-(2-(2-(2-(trifluoromethyl)oxetan-2-yl)phenoxy)pyridin-3-yl)-3-(5-(trifluoromethyl)pyridin-2-yl)urea] showed an IC50 of 248 nM.

In turn, `O=C(Nc1ccc(C(F)F)cc1)Nc1cccnc1Oc1ccccc1C1(C(F)(F)F)CCO1` (racemic) [S39, 1-(4-(difluoromethyl)phenyl)-3-(2-(2-(2-(trifluoromethyl)oxetan-2-yl)phenoxy)pyridin-3-yl)urea] displayed a 50% inhibitory concentration (IC50) of 259 nM.

For `O=C(Nc1cc(OC(F)(F)F)ccc1F)Nc1cccnc1Oc1ccc(F)cc1C1(C(F)(F)F)CCO1` (racemic) [S40, 1-(2-(4-fluoro-2-(2-(trifluoromethyl)oxetan-2-yl)phenoxy)pyridin-3-yl)-3-(2-fluoro-5-(trifluoromethoxy)phenyl)urea], the IC50 was 278 nM.

The molecule `Cc1ccc(NC(=O)Nc2ccc3c(c2)OC(F)(F)O3)c(Oc2ccc(F)cc2C2(C(F)(F)F)CCO2)n1` (racemic) [S41, 1-(2,2-difluorobenzo[d][1,3]dioxol-5-yl)-3-(2-(4-fluoro-2-(2-(trifluoromethyl)oxetan-2-yl)phenoxy)-6-methylpyridin-3-yl)urea] showed an IC50 of 287 nM.

The molecule `Cc1ccc(NC(=O)Nc2ccccc2)c(Oc2ccc(F)cc2C2(C(F)(F)F)CCO2)n1` (racemic) [S42, 1-(2-(4-fluoro-2-(2-(trifluoromethyl)oxetan-2-yl)phenoxy)-6-methylpyridin-3-yl)-3-phenylurea] had an IC50 of 324 nM.

`O=C(Nc1ccc(OC(F)F)cc1)Nc1cccnc1Oc1ccccc1C1(C(F)(F)F)CCO1` (racemic) [S43] had an IC50 of 334 nM.

Molecule `COc1ccc(F)c(NC(=O)Nc2ccc(C)nc2Oc2ccccc2C2(C(F)(F)F)CCO2)c1` (racemic) [S44, 1-(2-fluoro-5-methoxyphenyl)-3-(6-methyl-2-(2-(2-(trifluoromethyl)oxetan-2-yl)phenoxy)pyridin-3-yl)urea] came in with an IC50 of 348 nM.

As for `Cc1ncc(NC(=O)Nc2ccc(OC(F)(F)F)cc2F)c(Oc2ccccc2C2(C(F)(F)F)CCO2)n1` (racemic) [S45], the IC50 amounted to 382 nM.

In turn, `O=C(Nc1ccc(Cl)cn1)Nc1cccnc1Oc1ccccc1C1(C(F)(F)F)CCO1` (racemic) [S46, 1-(5-chloropyridin-2-yl)-3-(2-(2-(2-(trifluoromethyl)oxetan-2-yl)phenoxy)pyridin-3-yl)urea] gave a concentration for half-maximal inhibition (IC50) of 384 nM.

Take `COc1ccc(F)c(NC(=O)Nc2cccnc2Oc2ccccc2C2(C(F)(F)F)CCO2)c1` (racemic) [S47, 1-(2-fluoro-5-methoxyphenyl)-3-(2-(2-(2-(trifluoromethyl)oxetan-2-yl)phenoxy)pyridin-3-yl)urea]: the concentration for half-maximal inhibition (IC50) was 392 nM.

The molecule `Cc1ccc(NC(=O)Nc2ccc(F)cc2)c(Oc2ccc(F)cc2C2(C(F)(F)F)CCO2)n1` (racemic) [S48, 1-(2-(4-fluoro-2-(2-(trifluoromethyl)oxetan-2-yl)phenoxy)-6-methylpyridin-3-yl)-3-(4-fluorophenyl)urea] gave an IC50 of 408 nM.

`O=C(Nc1cccc(OC(F)(F)F)c1)Nc1cccnc1Oc1ccc(F)cc1C1(C(F)(F)F)CCO1` (racemic) [S49, 1-(2-(4-fluoro-2-(2-(trifluoromethyl)oxetan-2-yl)phenoxy)pyridin-3-yl)-3-(3-(trifluoromethoxy)phenyl)urea] displayed an IC50 of 419 nM.

For the molecule `O=C(Nc1ccc(OC(F)(F)F)cn1)Nc1cccnc1Oc1ccccc1C1(C(F)(F)F)CCO1` (racemic) [S50, 1-(5-(trifluoromethoxy)pyridin-2-yl)-3-(2-(2-(2-(trifluoromethyl)oxetan-2-yl)phenoxy)pyridin-3-yl)urea], the 50% inhibitory concentration (IC50) is 465 nM.

For `COc1ccc(NC(=O)Nc2cccnc2Oc2ccccc2C2(C(F)(F)F)CCO2)c(F)c1` (racemic) [S51, 1-(2-fluoro-4-methoxyphenyl)-3-(2-(2-(2-(trifluoromethyl)oxetan-2-yl)phenoxy)pyridin-3-yl)urea], the IC50 came to 473 nM.

`[2H]C([2H])([2H])Oc1ccc(NC(=O)Nc2cccnc2Oc2ccccc2C2(C(F)(F)F)CCO2)c(F)c1` (racemic) [S52, 1-(2-fluoro-4-(methoxy-d3)phenyl)-3-(2-(2-(2-(trifluoromethyl)oxetan-2-yl)phenoxy)pyridin-3-yl)urea] had an IC50 of 500 nM.

For `O=C(Nc1ccc(F)cc1)Nc1cccnc1Oc1ccccc1C1(C(F)(F)F)CCO1` (racemic) [S53, 1-(4-fluorophenyl)-3-(2-(2-(2-(trifluoromethyl)oxetan-2-yl)phenoxy)pyridin-3-yl)urea], the IC50 turned out to be 522 nM.

Molecule `Cc1ccc(NC(=O)Nc2ccc(F)cn2)c(Oc2ccc(F)cc2C2(C(F)(F)F)CCO2)n1` (racemic) [S54, 1-(2-(4-fluoro-2-(2-(trifluoromethyl)oxetan-2-yl)phenoxy)-6-methylpyridin-3-yl)-3-(5-fluoropyridin-2-yl)urea] registered a half-inhibitory concentration (IC50) of 549 nM.
